The numbers were not newly measured in US20260240758A1, “INJECTABLE PHENYLEPHRINE COMPOSITIONS” (Hikma Pharmaceuticals USA Inc., priority 2022, published 2026), which cites them from elsewhere.

The conditions of the data set: phenylephrine HCl 400 μg/ml and 200 μg/ml, PVC bags, 60 days at room temperature.

Regarding `CNC[C@H](O)c1cccc(O)c1` [phenylephrine], the phenylephrine degraded was 4-5%.
